Data reported in patent US20250228239A1, “MOLECULES HAVING PESTICIDAL UTILITY, AND INTERMEDIATES, COMPOSITIONS, AND PROCESSES, RELATED THERETO” (priority 2024, published 2025).

Key:
Assay type in all cases: in vivo
[1] = test system: Beet Armyworm (Spodoptera exigua, LAPHEG); experiment: Bioassays on Beet Armyworm (BAW), 128-well diet tray assay; settings: Spodoptera exigua; Beet Armyworm; rating class; read-out: BAW
Procedure, shortened: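 Mortality of second-instar larvae (1–5/well) on artificial diet treated with 50 μg/cm^2 compound, read after 5–7 days at 25° C.; values are means of eight wells.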

[2] = test system: Yellow Fever Mosquito (Aedes aegypti, AEDSAE); settings: Yellow Fever Mosquito; rating class
Procedure, shortened: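 Mortality after 3 days at room temperature is the read-out, scored well by well and converted to a rating. Test molecules came from 4000 ppm stocks in DMSO, further diluted in 90:10 water/acetone, and were exposed to roughly 1-day-old larvae suspended in liver-powder water.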

[3] = test system: Cabbage Looper (Trichoplusia ni, TRIPNI); experiment: Bioassays on Cabbage Looper (CL), 128-well diet tray assay; settings: Trichoplusia ni; Cabbage Looper; rating class; read-out: CL
Procedure, shortened: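 Test molecule was dissolved in 90:10 acetone-water, applied to artificial diet at 50 μg/cm^2 and allowed to dry. Second-instar larvae were then added, one to five per well, and trays held at 25° C for five to seven days before mortality was scored and averaged.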

O=C(Nc1c(F)ccc(NC(=O)C(F)F)c1F)c1cc(NC(=O)[C@H]2[C@H](c3ccc(F)c(C(F)(F)F)c3)C2(Cl)Cl)ccc1F [F1561, 5-((1R,3R)-2,2-Dichloro-3-(4-fluoro-3-(trifluoromethyl)phenyl)cyclopropane-1-carboxamido)-N-(3-(2,2-difluoroacetamido)-2,6-difluorophenyl)-2-fluorobenzamide]
pest or weed control at 50 µg/cm2 [1]: 50 to 100%
YFM [2]: A (80–100)
pest or weed control at 50 µg/cm2 [3]: 50 to 100%

CC(=O)Nc1ccc(F)c(NC(=O)c2cc(NC(=O)[C@H]3[C@H](c4ccc(F)c(C(F)(F)F)c4)C3(Cl)Cl)ccc2F)c1F [F1562, N-(3-Acetamido-2,6-difluorophenyl)-5-((1R,3R)-2,2-dichloro-3-(4-fluoro-3-(trifluoromethyl)phenyl)cyclopropane-1-carboxamido)-2-fluorobenzamide]
pest or weed control at 50 µg/cm2 [1]: 50 to 100%
YFM [2]: A (80–100)
pest or weed control at 50 µg/cm2 [3]: 50 to 100%

CCOC(C)(C)C(=O)Nc1c(F)ccc(NC(=O)c2cc(NC(=O)[C@H]3[C@H](c4ccc(F)c(C(F)(F)F)c4)C3(Cl)Cl)ccc2Cl)c1F [F1603, 2-Chloro-5-((1R,3R)-2,2-dichloro-3-(4-fluoro-3-(trifluoromethyl)phenyl)cyclopropane-1-carboxamido)-N-(3-(2-ethoxy-2-methylpropanamido)-2,4-difluorophenyl)benzamide]
pest or weed control at 50 µg/cm2 [1]: 50 to 100%
YFM [2]: A (80–100)
pest or weed control at 50 µg/cm2 [3]: 50 to 100%

CCOC(C)C(=O)Nc1c(F)ccc(NC(=O)c2cc(NC(=O)[C@H]3[C@H](c4ccc(Cl)c(Cl)c4)C3(Cl)Cl)ccc2Cl)c1F (stereo partly drawn) [F1604, 2-Chloro-5-((1R,3R)-2,2-dichloro-3-(3,4-dichlorophenyl)cyclopropane-1-carboxamido)-N-(3-(2-ethoxypropanamido)-2,4-difluorophenyl)benzamide]
pest or weed control at 50 µg/cm2 [1]: 50 to 100%
YFM [2]: A (80–100)
pest or weed control at 50 µg/cm2 [3]: 50 to 100%

CCOC(C)(C)C(=O)Nc1c(F)ccc(NC(=O)c2cc(NC(=O)[C@H]3[C@H](c4ccc(Cl)c(Cl)c4)C3(Cl)Cl)ccc2Cl)c1F [F1605, 2-Chloro-5-((1R,3R)-2,2-dichloro-3-(3,4-dichlorophenyl)cyclopropane-1-carboxamido)-N-(3-(2-ethoxy-2-methylpropanamido)-2,4-difluorophenyl)benzamide]
pest or weed control at 50 µg/cm2 [1]: 50 to 100%
YFM [2]: A (80–100)
pest or weed control at 50 µg/cm2 [3]: 50 to 100%

CC(C)C(=O)Nc1c(F)ccc(NC(=O)c2cc(NC(=O)[C@H]3[C@H](c4ccc(Cl)c(Cl)c4)C3(Cl)Cl)ccc2Cl)c1F [F1606, 2-Chloro-5-((1R,3R)-2,2-dichloro-3-(3,4-dichlorophenyl)cyclopropane-1-carboxamido)-N-(2,4-difluoro-3-isobutyramidophenyl)benzamide]
pest or weed control at 50 µg/cm2 [1]: 50 to 100%
YFM [2]: A (80–100)
pest or weed control at 50 µg/cm2 [3]: 50 to 100%

O=C(Nc1ccc(F)c(NC(=O)C(C(F)(F)F)C(F)(F)F)c1F)c1cc(NC(=O)[C@H]2[C@H](c3ccc(Cl)c(Cl)c3)C2(Cl)Cl)ccc1Cl [F1607, 2-Chloro-5-((1R,3R)-2,2-dichloro-3-(3,4-dichlorophenyl)cyclopropane-1-carboxamido)-N-(2,4-difluoro-3-(3,3,3-trifluoro-2-(trifluoromethyl)propanamido)phenyl)benzamide]
pest or weed control at 50 µg/cm2 [1]: 50 to 100%
YFM [2]: A (80–100)
pest or weed control at 50 µg/cm2 [3]: 50 to 100%

O=C(Nc1ccc(F)c(NC(=O)C2CC2(F)F)c1F)c1cc(NC(=O)[C@H]2[C@H](c3ccc(Cl)c(Cl)c3)C2(Cl)Cl)ccc1Cl (stereo partly drawn) [F1608, 2-Chloro-5-((1R,3R)-2,2-dichloro-3-(3,4-dichlorophenyl)cyclopropane-1-carboxamido)-N-(3-(2,2-difluorocyclopropane-1-carboxamido)-2,4-difluorophenyl)benzamide]
pest or weed control at 50 µg/cm2 [1]: 50 to 100%
YFM [2]: A (80–100)
pest or weed control at 50 µg/cm2 [3]: 50 to 100%

O=C(Nc1ccc(F)c(NC(=O)C2CCOC2)c1F)c1cc(NC(=O)[C@H]2[C@H](c3ccc(Cl)c(Cl)c3)C2(Cl)Cl)ccc1Cl (stereo partly drawn) [F1610, N-(3-(2-Chloro-5-((1R,3R)-2,2-dichloro-3-(3,4-dichlorophenyl)cyclopropane-1-carboxamido)benzamido)-2,6-difluorophenyl)tetrahydrofuran-3-carboxamide]
pest or weed control at 50 µg/cm2 [1]: 50 to 100%
YFM [2]: A (80–100)
pest or weed control at 50 µg/cm2 [3]: 50 to 100%

CN(C(=O)C(F)(F)F)c1c(F)ccc(NC(=O)c2cc(NC(=O)[C@H]3[C@H](c4ccc(Cl)c(Cl)c4)C3(Cl)Cl)ccc2Cl)c1F [F1614, 2-Chloro-5-((1R,3R)-2,2-dichloro-3-(3,4-dichlorophenyl)cyclopropane-1-carboxamido)-N-(2,4-difluoro-3-(2,2,2-trifluoro-N-methylacetamido)phenyl)benzamide]
pest or weed control at 50 µg/cm2 [1]: 50 to 100%
YFM [2]: A (80–100)
pest or weed control at 50 µg/cm2 [3]: 50 to 100%

CCC1CCC(C(=O)Nc2c(F)ccc(NC(=O)c3cc(NC(=O)[C@H]4[C@H](c5ccc(F)c(C(F)(F)F)c5)C4(Cl)Cl)ccc3Cl)c2F)O1 (stereo partly drawn) [F1626, N-(3-(2-Chloro-5-((1R,3R)-2,2-dichloro-3-(4-fluoro-3-(trifluoromethyl)phenyl)cyclopropane-1-carboxamido)benzamido)-2,6-difluorophenyl)-5-ethyltetrahydrofuran-2-carboxamide]
pest or weed control at 50 µg/cm2 [1]: 50 to 100%
YFM [2]: A (80–100)
pest or weed control at 50 µg/cm2 [3]: 50 to 100%

CC(=O)Nc1c(F)cc(F)c(NC(=O)c2cc(NC(=O)[C@H]3[C@H](c4cc(Cl)cc(Cl)c4)C3(Cl)Cl)ccc2Cl)c1F [F1628, N-(3-Acetamido-2,4,6-trifluorophenyl)-2-chloro-5-((1R,3R)-2,2-dichloro-3-(3,5-dichlorophenyl)cyclopropane-1-carboxamido)benzamide]
pest or weed control at 50 µg/cm2 [1]: 50 to 100%
YFM [2]: A (80–100)
pest or weed control at 50 µg/cm2 [3]: 50 to 100%

CC(=O)Nc1c(F)cc(F)c(NC(=O)c2cc(NC(=O)[C@H]3[C@H](c4ccc(Cl)c(Cl)c4)C3(Cl)Cl)ccc2Cl)c1F [F1629, N-(3-Acetamido-2,4,6-trifluorophenyl)-2-chloro-5-((1R,3R)-2,2-dichloro-3-(3,4-dichlorophenyl)cyclopropane-1-carboxamido)benzamide]
pest or weed control at 50 µg/cm2 [1]: 50 to 100%
YFM [2]: B (More than 0 – Less than 80)
pest or weed control at 50 µg/cm2 [3]: 50 to 100%

COCC(=O)N(C)c1c(F)ccc(NC(=O)c2cc(NC(=O)[C@H]3[C@H](c4ccc(Cl)c(Cl)c4)C3(Cl)Cl)ccc2Cl)c1F [F1630, 2-Chloro-5-((1R,3R)-2,2-dichloro-3-(3,4-dichlorophenyl)cyclopropane-1-carboxamido)-N-(2,4-difluoro-3-(2-methoxy-N-methylacetamido)phenyl)benzamide]
pest or weed control at 50 µg/cm2 [1]: 50 to 100%
YFM [2]: A (80–100)
pest or weed control at 50 µg/cm2 [3]: 50 to 100%

CCOC(C)C(=O)Nc1c(F)ccc(NC(=O)c2cc(NC(=O)[C@H]3[C@H](c4cc(Cl)c(Cl)c(Cl)c4)C3(Cl)Cl)ccc2Cl)c1F (stereo partly drawn) [F1645, 2-Chloro-5-((1R,3R)-2,2-dichloro-3-(3,4,5-trichlorophenyl)cyclopropane-1-carboxamido)-N-(3-(2-ethoxypropanamido)-2,4-difluorophenyl)benzamide]
pest or weed control at 50 µg/cm2 [1]: 50 to 100%
YFM [2]: A (80–100)
pest or weed control at 50 µg/cm2 [3]: 50 to 100%

COCC(=O)Nc1c(F)ccc(NC(=O)c2cc(NC(=O)[C@H]3[C@H](c4cc(Cl)c(Cl)c(Cl)c4)C3(Cl)Cl)ccc2Cl)c1F [F1646, 2-Chloro-5-((1R,3R)-2,2-dichloro-3-(3,4,5-trichlorophenyl)cyclopropane-1-carboxamido)-N-(2,4-difluoro-3-(2-methoxyacetamido)phenyl)benzamide]
pest or weed control at 50 µg/cm2 [1]: 50 to 100%
YFM [2]: A (80–100)
pest or weed control at 50 µg/cm2 [3]: 50 to 100%

O=C(CC(F)(F)F)Nc1c(F)ccc(NC(=O)c2cc(NC(=O)[C@H]3[C@H](c4cc(Cl)c(Cl)c(Cl)c4)C3(Cl)Cl)ccc2Cl)c1F [F1651, 2-Chloro-5-((1R,3R)-2,2-dichloro-3-(3,4,5-trichlorophenyl)cyclopropane-1-carboxamido)-N-(2,4-difluoro-3-(3,3,3-trifluoropropanamido)phenyl)benzamide]
pest or weed control at 50 µg/cm2 [1]: 50 to 100%
YFM [2]: A (80–100)
pest or weed control at 50 µg/cm2 [3]: 50 to 100%

O=C(CC1CC1)Nc1c(F)ccc(NC(=O)c2cc(NC(=O)[C@H]3[C@H](c4cc(Cl)c(Cl)c(Cl)c4)C3(Cl)Cl)ccc2Cl)c1F [F1653, 2-Chloro-N-(3-(2-cyclopropylacetamido)-2,4-difluorophenyl)-5-((1R,3R)-2,2-dichloro-3-(3,4,5-trichlorophenyl)cyclopropane-1-carboxamido)benzamide]
pest or weed control at 50 µg/cm2 [1]: 50 to 100%
YFM [2]: A (80–100)
pest or weed control at 50 µg/cm2 [3]: 50 to 100%

CCC(=O)Nc1c(F)ccc(NC(=O)c2cc(NC(=O)[C@H]3[C@H](c4cc(Cl)c(Cl)c(Cl)c4)C3(Cl)Cl)ccc2Cl)c1F [F1654, 2-Chloro-5-((1R,3R)-2,2-dichloro-3-(3,4,5-trichlorophenyl)cyclopropane-1-carboxamido)-N-(2,4-difluoro-3-propionamidophenyl)benzamide]
pest or weed control at 50 µg/cm2 [1]: 50 to 100%
YFM [2]: A (80–100)
pest or weed control at 50 µg/cm2 [3]: 50 to 100%
